Laboratory results published in paper PMC5711939, “The rumen microbiome: an underexplored resource for novel antimicrobial discovery” (NPJ Biofilms and Microbiomes, 2017).
≈ marks a conversion by molar mass, not a printed value. Read-outs that look alike come from different tables or passages of the source. Ends that are not written are not given here.

How the values were obtained:
[1] = tested on: C. jejuni; assay: microbe, parasite or virus in culture
Procedure: (§1) Peptides dissolved in sterile distilled water and comparator antibiotics dissolved in the appropriate solvents[38] were added to sterile U-bottom polypropylene 96-well microplates at desired concentrations.

[2] = tested on: S. aureus; assay: microbe, parasite or virus in culture
Procedure: as §1

[3] = tested on: K. pneumoniae; assay: microbe, parasite or virus in culture
Procedure: as §1

[4] = tested on: C. coli
Procedure: as §1

[5] = tested on: E. coli K12; assay: SPOT peptide library screen (resazurin fluorescence); type: cell-based, Escherichia coli; parameters: unit not given here; settings: 75% reduction of fluorescence vs untreated controls; active IC75≤0.25, semi-active 0.25<IC75≤0.50, inactive IC75>0.5
Excerpt: (§2) The peptides in the created peptide library were synthesized based on the SPOT technique and pure peptides (≥95% purity) were synthesized on resin using solid phase Fmoc peptide chemistry.[16] The 135 peptides in the peptide library were screened for antimicrobial activity using both luminescent (Pseudomonas aeruginosa strain H1001)[34] and non-luminescent (epidemic methicillin resistant S. aureus EMRSA-15, Sal. typhimurium and E. coli K12) bacterial strains. Activity against non-luminescent bacteria strains was assessed by fluorescence readings (excitation/emission spectra of 560/590 nm) after the addition of resazurin dye (100 µm final concentration). The results from the screen were analysed using the MATLAB extension Gait-CAD as previously described.[35] Concentration values with a 75% reduction of luminescence or fluorescence (IC75) in relation to untreated controls were computed.

[6] = tested on: Sal. typhimurium; assay: as above; type: cell-based, Salmonella enterica serovar Typhimurium; parameters: unit not given here; settings: 75% reduction of fluorescence vs untreated controls; active IC75≤0.25, semi-active 0.25<IC75≤0.50, inactive IC75>0.5
Excerpt: as §2

[7] = tested on: P. aeruginosa H1001; assay: SPOT peptide library screen (luminescence); type: cell-based, Pseudomonas aeruginosa; parameters: unit not given here; settings: 75% reduction of luminescence vs untreated controls; active IC75≤0.25, semi-active 0.25<IC75≤0.50, inactive IC75>0.5
Excerpt: as §2

[8] = tested on: EMRSA-15; assay: SPOT peptide library screen (resazurin fluorescence); type: cell-based, Staphylococcus aureus; parameters: unit not given here; settings: 75% reduction of fluorescence vs untreated controls; active IC75≤0.25, semi-active 0.25<IC75≤0.50, inactive IC75>0.5
Excerpt: as §2

[9] = tested on: List. monocytogenes NCTC 11994; assay: microbe, parasite or virus in culture
Procedure: as §1

[10] = tested on: Ent. faecalis JH2-2; assay: microbe, parasite or virus in culture
Procedure: as §1

[11] = tested on: Sal. typhimurium SL1344; assay: microbe, parasite or virus in culture
Procedure: as §1

[12] = tested on: E. coli K12; assay: MIC, broth microdilution; type: cell-based, Escherichia coli; settings: strain K12, cation adjusted MHB, 18–24 h
Procedure: as §1

[13] = tested on: S. aureus MRSA ATCC 33591; assay: Neutropenic mouse MRSA thigh infection model; type: in vivo, Staphylococcus aureus; settings: neutropenic male ICR mice; 10 mg/kg IV administered twice; significant (P < 0.001)
Procedure: In the thigh infection model, using neutropenic mice,[25] groups of five male ICR mice weighing 22 ± 2 g were inoculated intramuscularly (IM) with S. aureus MRSA, ATCC 33591 (1.57 × 10^5 CFU/mouse (0.1 ml/thigh)) in the right thigh. Lynronne-1, Lynronne-2 and Lynronne-3 at 10 mg/kg were intravenously (IV) administered once 2 h post infection or twice 2 and 8 h post-infection. The reference substance, vancomycin, was also intravenously injected 2 and 8 h post-infection at 10 and 30 mg/kg. Test animals were sacrificed 26 h after inoculation and the infected thighs were excised and the bacterial burden (CFU/gram) was determined.

[14] = tested on: E. coli K12; assay: Time kill kinetics; type: cell-based, Escherichia coli
Procedure: Assessment of the bactericidal activity of peptides and comparator antibiotics was performed as previously described[39] using exponential-phase cultures of pathogens grown in MHB ([…]). Peptides were added at concentrations 3 times their MIC values. Experiments were performed in quadruplicates, and CFU/ml was calculated at different time points after over overnight incubation.

[15] = tested on: A. baumanii; assay: microbe, parasite or virus in culture; settings: Acinetobacter baumannii, strain Q12-0867; Sensitive; cation adjusted MHB, 18–24 h
Procedure: as §1

[16] = tested on: P. aeruginosa (CF); assay: microbe, parasite or virus in culture; settings: Pseudomonas aeruginosa, cation adjusted MHB, 18–24 h
Procedure: as §1

[17] = tested on: HUVEC and HepG2 cells; settings: HUVEC and HepG2 cells (cell line not given)
Procedure: Cytotoxic activity of the identified peptides was determined using HUVEC and HEPG2 cells as described previously.[41],[42] […] Significant responses were defined when observed cell growth was ≤50% and tube length was ≤70% using the proliferation and tube formation assays respectively. Permeabilization of eukaryotic membrane by Lynronne-1, Lynronne-2 and Lynronne-3 was also investigated using HepG2 cells as described previously.[43]

[18] = Escherichia coli, read-out: MIC
[19] = Listeria monocytogenes, NCTC11994
[20] = Salmonella enterica, TYPHIMURIUM
[21] = strain RN4220, Sensitive, cation adjusted MHB, 18–24 h

GTAWRWHYRARS-NH2 [P15a]
MIC [1]: 128 µg/mL
MIC [2]: >128 µg/mL
MIC [3]: >128 µg/mL
MIC [4]: 128 µg/mL

TTAPCKCWIGLRRCFK [P18]
IC75 values indicating activity classes, E. coli [5]: 0.36
IC75 values indicating activity classes, Sal. typhimurium [6]: 1.99
IC75 values indicating activity classes, P. aeruginosa H1001 [7]: 1.55
IC75 values indicating activity classes, EMRSA-15 [8]: 3.77

QVRWWGRYWRRKWATCR-NH2 [P12]
MIC [1]: >128 µg/mL
MIC ([9]; NCTC 11994): 128 µg/mL
MIC [10]: 256 µg/mL
MIC [11]: 256 µg/mL
MIC [4]: >128 µg/mL

CN[C@H](CC(C)C)C(=O)N[C@H]1C(=O)N[C@@H](CC(N)=O)C(=O)N[C@H]2C(=O)N[C@H]3C(=O)N[C@H](C(=O)N[C@H](C(=O)O)c4cc(O)cc(O)c4-c4cc3ccc4O)[C@H](O)c3ccc(c(Cl)c3)Oc3cc2cc(c3O[C@@H]2O[C@H](CO)[C@@H](O)[C@H](O)[C@H]2O[C@H]2C[C@](C)(N)[C@H](O)[C@H](C)O2)Oc2ccc(cc2Cl)[C@H]1O [Van, Vancomycin, reference compound]
MIC [12, 18]: 128 µg/mL (≈ 88.3 µM)
MIC [9, 19]: 64 µg/mL (≈ 44.2 µM)
MIC ([10]; Enterococcus faecalis, JH22): 64 µg/mL (≈ 44.2 µM)
MIC ([2]; Staphylococcus aureus): 1 µg/mL (≈ 0.69 µM)
MIC ([2]; Staphylococcus aureus, ATCC33591 / MRSA): 2 µg/mL (≈ 1.38 µM)
MIC ([2]; Staphylococcus aureus, BAA1717 / MRSA / USA300): 2 µg/mL (≈ 1.38 µM)
MIC ([2]; Staphylococcus aureus, MRSA): 2 µg/mL (≈ 1.38 µM)
MIC [11, 20]: 256 µg/mL (≈ 177 µM)
Reduction in colony counts [13]: < 2 log

RSITRPVLVRRRWRVRPVF-NH2 [P10]
MIC [12]: 256 µg/mL
MIC [1]: >128 µg/mL
MIC ([9]; NCTC 11994): 512 µg/mL
MIC [10]: 512 µg/mL
MIC [2]: >128 µg/mL
MIC [2, 21]: 256 µg/mL
MIC [3]: >128 µg/mL
MIC [11]: 64 µg/mL
MIC [4]: >128 µg/mL

KFVRLKIYCRDKNKGRGISF-NH2 [P15s]
MIC [12]: 64 µg/mL
MIC [1]: 128 µg/mL
MIC ([9]; NCTC 11994): 128 µg/mL
MIC [10]: 128 µg/mL
MIC [11]: 128 µg/mL
MIC [4]: 128 µg/mL

O=C(O)c1cn(C2CC2)c2cc(N3CCNCC3)c(F)cc2c1=O [Cip, Ciprofloxacin, reference compound]
MIC [12, 18]: 0.06 µg/mL (≈ 0.181 µM)
Bactericidal activity (reduction in viable count) ([14]; at 3 h): > 4 log10 CFU/ml
MIC ([1]; Campylobacter jejuni, ATCC33292): 0.12 µg/mL (≈ 0.362 µM)
MIC ([1]; Campylobacter jejuni, NCTC11161): 0.5 µg/mL (≈ 1.51 µM)
MIC [9, 19]: 64 µg/mL (≈ 193 µM)
MIC ([10]; Enterococcus faecalis, JH22): 64 µg/mL (≈ 193 µM)
MIC ([2]; Staphylococcus aureus): > 256 µg/mL
MIC ([2]; Staphylococcus aureus, ATCC29213, strain ATCC 29213, Sensitive, cation adjusted MHB, 18–24 h): 0.25 µg/mL (≈ 0.754 µM)
MIC ([2]; Staphylococcus aureus, MRSA, strain EMRSA-15, resistances MRSA, Cip, cation adjusted MHB, 5 × 10^5 CFU/ml, 18–24 h): > 256 µg/mL
MIC ([2]; Staphylococcus aureus, MRSA, strain Q14-0320, cation adjusted MHB, 18–24 h): 64 µg/mL (≈ 193 µM)
MIC ([2]; Staphylococcus aureus, MRSA, strain Q14-0325, cation adjusted MHB, 18–24 h): 0.25 µg/mL (≈ 0.754 µM)
MIC ([2]; Staphylococcus aureus, MRSA, strain Q14-0352, cation adjusted MHB, 18–24 h): 0.5 µg/mL (≈ 1.51 µM)
MIC ([2]; Staphylococcus aureus, MRSA, strain Q14-0390, cation adjusted MHB, 18–24 h): 64 µg/mL (≈ 193 µM)
MIC ([2]; Staphylococcus aureus, MRSA|NCTC12493, strain NCTC 12493, MRSA, cation adjusted MHB, 18–24 h): 0.25 µg/mL (≈ 0.754 µM)
MIC ([3]; Klebsiella pneumoniae, ATCC700603, strain ATCC 700603, SHV-18, cation adjusted MHB, 18–24 h): 0.25 µg/mL (≈ 0.754 µM)
MIC ([3]; Klebsiella pneumoniae, NCTC13442, strain NCTC 13442, OXA-48, cation adjusted MHB, 18–24 h): 1 µg/mL (≈ 3.02 µM)
MIC ([3]; Klebsiella pneumoniae, strain ID not given, Sensitive, cation adjusted MHB, 18–24 h): 0.03 µg/mL (≈ 0.0905 µM)
MIC ([3]; Klebsiella pneumoniae, strain Q14-0285, VIM, cation adjusted MHB, 18–24 h): 32 µg/mL (≈ 96.6 µM)
MIC [15]: 0.25 µg/mL (≈ 0.754 µM)
MIC ([16]; ATCC27853, strain ATCC 27853, Sensitive): 0.25 µg/mL (≈ 0.754 µM)
MIC ([16]; strain PA01): 0.5 µg/mL (≈ 1.51 µM)
MIC ([16]; strain Q12-0535, Sensitive): 0.06 µg/mL (≈ 0.181 µM)
MIC ([16]; strain Q12-0581, IMI, MER): 2 µg/mL (≈ 6.04 µM)
MIC ([16]; strain Q12-0758, CAZ, IMI, MER): 2 µg/mL (≈ 6.04 µM)
MIC ([16]; strain Q14-0208, CAZ, IMI, MER): 4 µg/mL (≈ 12.1 µM)
MIC ([16]; strain Q14-0890, CAZ, IMI, MER): 4 µg/mL (≈ 12.1 µM)
MIC [11, 20]: 0.12 µg/mL (≈ 0.362 µM)

CN[C@@H]1C[C@H]2O[C@@](C)([C@@H]1OC)n1c3ccccc3c3c4c(c5c6ccccc6n2c5c31)C(=O)NC4 [Staurosporine, reference compound]
50% lethal concentration (LC50) [17]: 0.014 µg/mL

C[C@H]1COc2c(N3CCN(C)CC3)c(F)cc3c(=O)c(C(=O)O)cn1c23 [Lev, Levofloxacin, reference compound]
MIC ([16]; strain AMT0060): 0.06 µg/mL (≈ 0.166 µM)
MIC ([16]; strain C3719): < 0.03 µg/mL
MIC ([16]; strain LESB58): 0.06 µg/mL (≈ 0.166 µM)

SIKILKIYFIQGKRHWSF-NH2 (C-terminus assumed) [P11]
MIC [1]: >128 µg/mL
MIC ([9]; NCTC 11994): 256 µg/mL
MIC [10]: 256 µg/mL
MIC [11]: 512 µg/mL
MIC [4]: >128 µg/mL

TMSLRFWRWKVR-NH2 [P5]
MIC [12]: 64 µg/mL
MIC [1]: 128 µg/mL
MIC ([9]; NCTC 11994): 64 µg/mL
MIC [10]: 64 µg/mL
MIC [2, 21]: 64 µg/mL
MIC [11]: 64 µg/mL
MIC [4]: 128 µg/mL

VLHTGYRKFLHRSKRFFHLR-NH2 [P4]
MIC [12]: 64 µg/mL
MIC [1]: >128 µg/mL
MIC ([9]; NCTC 11994): 64 µg/mL
MIC [10]: 64 µg/mL
MIC [11]: 32 µg/mL
MIC [4]: >128 µg/mL

AWRWKAFRNCWRVRSSSL-NH2 [P8]
MIC [12]: 64 µg/mL
MIC [1]: >128 µg/mL
MIC ([9]; NCTC 11994): 64 µg/mL
MIC [10]: 64 µg/mL
MIC [2, 21]: 64 µg/mL
MIC [11]: 32 µg/mL
MIC [4]: >128 µg/mL

Polymyxin B
Bactericidal activity (reduction in viable count) ([14]; at 10 min): > 4 log10 CFU/ml

C/C(=C\C(=O)OCCCCCCCCC(=O)O)C[C@@H]1OC[C@H](C[C@@H]2O[C@H]2[C@@H](C)[C@H](C)O)[C@@H](O)[C@H]1O [Mup, Mupirocin, reference compound]
MIC ([2]; Staphylococcus aureus, BAA1717|MRSA|USA300, strain USA300 BAA-1717, MRSA, cation adjusted MHB, 18–24 h): 0.12 µg/mL (≈ 0.24 µM)
